In series [1] the test system is hypoxia-ischemia of rabbit fetuses. The experiment in a line: uterine ischemia, global hypoxia-ischemia of rabbit fetuses, neurobehavioral examination of P1 kits. As to conditions: for number of normal postnatal P1 kits: compared to saline-treated dams; for protection against HI-fetal brain injury: comparison with 7-NI, p<0.05 Fisher's Exact Test; for permeability to the fetal brain: maternal administration.

In a further series the test system is whole body ischemia. As to conditions: in vivo; cited from earlier work.
Series [2] in a line: effect of maternal administration on blood pressure and heart rate in E22 rabbit dams. The class given is in vivo, New Zealand white rabbit. As for the experimental part:
Because of the importance of eNOS to the regulation of cardiovascular activity, the effect of maternal administration of 4 and 5 on blood pressure in 22 day-gestation (E22) New Zealand white rabbit dams was determined. There was no effect on heart rate or on systolic or diastolic blood pressure by treatment with 4 or 5.

Series [3] concerns total constitutive NOS activity (both nNOS and eNOS) in fetal brain homogenates. The experiment in a line: NOS activity and NOx levels in fetal brain after maternal administration. The class given is in vivo. As to conditions: E22 rabbit dams. The source says: The NOS activity assay in fetal brain homogenates assessed total constitutive NOS activity (i.e., both nNOS and eNOS). […] Therefore changes in NOS activity should correspond to changes in nNOS activity. […] The corresponding decrease in the NO concentration also indicated strong NOS inhibition had occurred.

A further series deals with iNOS (Mus musculus, UniProt P29477). The experiment in a line: biochemical.
iNOS, sequence (P29477 whole entry): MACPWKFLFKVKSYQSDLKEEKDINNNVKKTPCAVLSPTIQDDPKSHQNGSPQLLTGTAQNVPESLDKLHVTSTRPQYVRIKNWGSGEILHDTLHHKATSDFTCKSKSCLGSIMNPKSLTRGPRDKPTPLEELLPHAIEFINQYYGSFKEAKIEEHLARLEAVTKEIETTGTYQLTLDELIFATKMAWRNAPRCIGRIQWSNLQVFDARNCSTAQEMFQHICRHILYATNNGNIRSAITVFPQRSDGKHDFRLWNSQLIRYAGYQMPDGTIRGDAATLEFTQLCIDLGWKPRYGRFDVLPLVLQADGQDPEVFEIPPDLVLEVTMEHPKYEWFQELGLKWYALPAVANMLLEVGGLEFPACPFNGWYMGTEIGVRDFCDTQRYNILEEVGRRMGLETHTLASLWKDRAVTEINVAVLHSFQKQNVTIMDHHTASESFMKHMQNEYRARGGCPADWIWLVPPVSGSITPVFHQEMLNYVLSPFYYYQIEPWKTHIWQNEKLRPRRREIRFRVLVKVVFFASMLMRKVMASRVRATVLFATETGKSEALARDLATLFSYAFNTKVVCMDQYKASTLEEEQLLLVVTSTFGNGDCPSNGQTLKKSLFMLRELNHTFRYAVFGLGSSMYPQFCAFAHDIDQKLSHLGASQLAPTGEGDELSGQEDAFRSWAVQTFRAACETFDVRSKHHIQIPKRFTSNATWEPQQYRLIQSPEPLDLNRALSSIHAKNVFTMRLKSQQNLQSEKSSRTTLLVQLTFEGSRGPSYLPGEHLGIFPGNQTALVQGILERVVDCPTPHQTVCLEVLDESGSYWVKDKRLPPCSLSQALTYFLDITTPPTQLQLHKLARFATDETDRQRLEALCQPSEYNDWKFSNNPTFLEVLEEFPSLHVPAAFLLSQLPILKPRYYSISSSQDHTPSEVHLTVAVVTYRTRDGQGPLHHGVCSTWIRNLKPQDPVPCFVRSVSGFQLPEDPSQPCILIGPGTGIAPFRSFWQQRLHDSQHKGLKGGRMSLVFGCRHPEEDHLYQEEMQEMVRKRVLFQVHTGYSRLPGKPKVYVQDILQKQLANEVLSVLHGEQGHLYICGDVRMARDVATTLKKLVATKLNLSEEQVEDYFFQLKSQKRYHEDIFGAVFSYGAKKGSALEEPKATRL
For series [4] the following is noted: Paudler and Blewitt, 1966; cited from earlier work.
In another series the target is nNOS (Rattus norvegicus, UniProt P29476). Conditions: read-out: Ki nNOS.

The values below come from patent US20080176907A1, “NOS Inhibitors For Treatment Of Motor Deficit Disorders” (Northwestern University, priority 2006, published 2008).

For orientation: Ki means the equilibrium dissociation constant of an inhibitor or competing ligand from its target. As usually defined, the pKa is the negative logarithm of the acid dissociation constant.

Consider `O=[N+]([O-])c1cccc2cn[nH]c12` [7-NI, 7-nitroindazole, reference compound], for which, in series [1] (rabbit, in vivo), the “incidence of fetal death (dead/total fetuses)” value was 10/38 and the “incidence of fetal death (stillborn)” value was 26%.

`FC(F)(F)c1ccccc1-n1ccnc1` [TRIM]: the “outcome following whole body ischemia” value with whole body ischemia is given as “worse outcome”.

Consider `Cc1cc(N)nc(C[C@H]2CNC[C@H]2NCCNCCc2cccc(F)c2)c1` (racemic) [(±)-5], for which, in series [2], the “effect on heart rate” value was “no effect” and the “effect on systolic or diastolic blood pressure” value is listed as “no effect”. Besides, the “NO concentration (NOx) in fetal brain” value in series [3] (after maternal treatment) is given as “decrease”. Also, the “NOS activity in fetal brain” value in series [3] (shortly after acute maternal treatment) is on record as “NOS inhibition was observed”. For the same compound, the “effect when administered post-ischemia” value in series [1] (administered post-ischemia) is “no effect”. Also, in series [1], the “number of normal postnatal P1 kits” value is on record as “substantially larger number”, the “protection against HI-fetal brain injury” value is on record as “superior to 7-NI” and the “permeability to the fetal brain” value is listed as “permeable”. Also, in series [1] (rabbit, in vivo), the fetal/neonatal deaths result is “no deaths” and the “incidence of fetal death (dead/total fetuses)” value is on record as 0/49.

`N=C(NCCC[C@H](N)C(=O)O)N[N+](=O)[O-]` [εNNA, L-N^ω-nitroarginine] returned an inhibition constant Ki at iNOS of 4.55 µM.

On to `Cc1cc(N)nc(C[C@H]2CNC[C@H]2NCCNCCc2ccccc2)c1` (relative stereo) [JI-6], for which, in series [1] (Dose 200 ki × 2, Age 22), the “Normal (number of kits)” value is recorded as 9.

Take `Cc1cc(C)nc(N)c1` [2-amino-4,6-dimethylpyridine]: the pKa in series [4] was 7.12.

Turning to `Cc1cc(N)nc(C[C@H]2CNC[C@H]2NCCNCc2ccc(Cl)cc2)c1` (racemic) [(±)-4], in series [2], the “effect on heart rate” value is on record as “no effect” and the “effect on systolic or diastolic blood pressure” value is given as “no effect”. In addition, the “incidence of fetal death (dead/total fetuses)” value in series [1] (0/49 is stated for either 4 or 5) is recorded as 0/49. In series [1] (Dose 75 ki × 2, Age 22), the “Normal (number of kits)” value was 9 and the “Severe (number of kits)” value amounted to 2. In addition, the “Severe (number of kits)” value in series [1] (Dose 75 ki × 2, Age 25) is reported as 2. The “Normal (number of kits)” value in series [1] (Dose 75 ki × 2, Age 29) was found to be 10. In series [1], the “number of normal postnatal P1 kits” value was “substantially larger number”, the “protection against HI-fetal brain injury” value was “superior to 7-NI” and the “permeability to the fetal brain” value is given as “permeable”. Further, the fetal/neonatal deaths result in series [1] (inhibitor 30 min prior to and immediately after uterine ischemia) is “no deaths”.

As to `N=C(NCCC[C@H](N)C(=O)N[C@H]1CN[C@H](C(N)=O)C1)N[N+](=O)[O-]` [compound 3], the values for the Ki on nNOS and at iNOS were 0.1 µM and 29 µM, respectively.
